Reference: patent US20030135033A1, “Compounds and methods for the identification and/ or validation of a target” (priority 2002, published 2003)

What was measured:
PTEN mRNA = test: Immunoblot of phosphorylated Akt after GeneBloc transfection of PTEN negative PC-3 cells; format: cell-based, human; details: PC-3 cells (PTEN negative), 30 nM, 48 h
Description: More particularly, HeLa cells (380.000 cells/plate) and PC-3 cells (450.000 cells/plate) were transfected in parallel on 10 cm plates. Each cell line was treated for 48 h in duplicate samples with 30 nM of PTEN GeneBloc 53 or GBC. The cell extracts were analyzed by immunoblotting for the relative amounts of p110, PTEN and phosphorylated Akt (P*-Akt) as indicated on the right. The band which migrates just above the PTEN signal was caused by unspecific reaction of the secondary antibody. […]
Cells were washed twice with cold phosphate-buffered saline and lysed at 4° C. in lysis buffer containing 20 mM Tris (pH 7.5), 137 mM NaCl, 15% (vol/vol) glycerol, 1% (vol/vol) Nonidet P-40 (NP-40), 2 mM phenylmethylsulfonyl fluoride, […], 20 mM leupeptin, 2 mM benzamidine, 1 mM sodium vanadate, 25 mM […]-glycerol phosphate, 50 mM NaF and 10 mM NaPPi. Lysates were cleared by centrifugation at 14,000× g for 5 minutes and aliquots of the lysates were analyzed for protein expression by Western-blotting: Samples were separated by SDS-PAGE and transferred to nitrocellulose-filters (Schleicher & Schuell). […] Bound antibody was detected using anti-mouse- or anti-rabbit-conjugated horse radish peroxidase (Transduction Laboratories, BD) in TBST, washed, and developed using the SuperSignal West Dura (Pierce) or ECL (Amersham) chemoluminescence substrates. […]

3Y1 cells = test: UV-induced apoptosis in 3Y1 cells after GeneBloc treatment (cleaved caspase 3); format: cell-based, rat; details: 48 h GeneBloc treatment, UV irradiation
Description: Activation of the P13K pathway interferes with caspase-mediated apoptosis through Akt-activation. Apoptotic stimuli may either be cytokines like TNF, or UV-irradiation. In the present example of which the results of a Western blot analysis are shown in FIG. 7B, UV-irradiation was used as to induce apoptosis. PTEN is an inhibitor of PI-3K action. […] Activated Akt blocks caspases-mediated apoptosis. Apoptosis was monitored by the presence of cleaved Caspase 3.
If knock down of PTEN expression mediated by third generation antisense molecules (GeneBlocs) results in a functional activation of PI 3-kinase signalling, then increased phosphorylation and activation of Akt should interfere with the effects of apoptotic stimuli. […] It was previously shown that rat embryo fibroblasts undergo apoptosis after UV irradiation and that this response can be inhibited by activation of the PI 3-kinase pathway, and specifically by activated Akt (Kulik, G., Klippel, A. and Weber, M. J. (1997). Antiapoptotic signalling by the insulin-like growth factor I receptor, phosphatidylinositol 3-kinase, and Akt. Mol Cell Biol 17, 1595-1606)). We exposed 3Y1 cells to UV light after 48 h GeneBloc treatment. 3 h after irradiation cell extracts were harvested and analyzed for the presence of cleaved caspase 3 which is indicative for apoptosis. […] Cells which were not exposed to UV light after transfection contained very little amounts of cleaved caspase 3.

## ucuccuuTTGTTTCTGcuaacga (UCUCCUUTTGTTTCTGCUAACGA; chemistry not fully specified) [PTEN 53, third generation antisense oligonucleotide (GeneBloc) against PTEN]
PTEN mRNA
  phosphorylated Akt (P*-Akt) (immunoblot): generate phosphorylated Akt irrespective
PTEN mRNA; listed as PTEN GeneBloc 53
  phosphorylated Akt (P*-Akt) (immunoblot): had no effect
3Y1 cells
  phosphorylated Akt: phosphorylated Akt is generated
